Measurements: patent US11913030B2, “Method of preparing mimicking angiogenic co-spheroids and application thereof” (NATIONAL TAIWAN UNIVERSITY, priority 2018, dated 2024)

How the values were obtained:
[1] = tested on: ECs in NSC/EC co-spheroids; assay: qRT-PCR of EC activity and angiogenic markers in co-spheroids encapsulated in gelatin-based hydrogel; type: cell-based; settings: FGF2 1 μg/mL in gelatin-based hydrogel, 3 days
Protocol: Total RNA from the adherent cells or cell spheroids formed on CS-HA substrates and embedded in the hydrogels was extracted by Trizol reagent (Invitrogen) as the manufacturer's instructions. One microgram of total RNA was further subjected to the cDNA synthesis. cDNA pool was generated by RevertAid First Strand cDNA Synthesis Kit (MBI Fermentas, Canada) using the standard protocol. qRT-PCR was performed by StepOnePlus thermos cycler (Applied Biosystems) using the DyNAmo Flash SYBR Green qPCR Kit (Finnzymes Oy, Finland). […]
To investigate whether EC activity in NSC/EC co-spheroids was promoted after encapsulation in gelatin-based hydrogel, the co-spheroids that were cultured on CS-HA substrates for 2 days were collected, and then encapsulated by gelatin-based hydrogel. After encapsulation for 3 days, the expression of several markers representative of mitogenic and angiogenic activities of ECs was determined.
On the other hand, a relative long-term culture of co-spheroids in the gelatin-based hydrogel containing FGF2 for 12 days was also performed, and the activity of ECs was analyzed by gene expression.
To further verify the angiogenic potential of ECs in the co-spheroids, more angiogenic markers for ECs including angiopoietin-1, angiopoietin-2, and tyrosine kinase 1 (Flt-1) were analyzed.

NSC/EC co-spheroids = assay: Morphology and relative size of co-spheroids encapsulated in hydrogels; type: cell-based; settings: FGF2 1 μg/mL
Protocol: To observe the morphological alteration of NSC/EC co-spheroids embedded in the hydrogels, the cells were labeled with fluorescent dyes before seeding on CS-HA substrates. After gelation, the culture medium was added and changed every 2 days. The morphologies of cell spheroids formed on CS/CS-HA substrates and encapsulated in the various hydrogels were observed by a fluorescence microscope (Leica, DMIRB), and the relative sizes of cell spheroids were determined by ImageJ software (National Institutes of Health, USA).
To support the long-term growth of NSC/EC co-spheroids, the co-spheroids derived from the CS-HA substrates were respectively embedded in the CS-based and gelatin-based hydrogels. […] On the other hand, the cell growth rates in the spheroids were evaluated by the spheroid size. Cells in EC mono-spheroids grew faster than those in NSC mono-spheroids, and the growth rate in NSC/EC co-spheroids was the slowest in both hydrogels, though the difference among each group was not statistically significant.
In some embodiments, the fibroblast growth factor 2 (FGF2) protein was used to promote the growth of co-spheroids in hydrogels. In order to evenly add FGF2 to hydrogels, FGF2 (PeproTech, USA) was added to the hydrogel solution and mixed before the gelation. The final concentration of the FGF2 protein in hydrogels was 1 μg/mL. […]

## fibroblast growth factor 2 [FGF2]
[1]
  expression of KDR, VEGF, ITGb1, VE-cadherin upon addition of FGF2: did not seem to be apparently affected
NSC/EC co-spheroids; in CS-based hydrogel
  growth rates of the co-spheroids after FGF2 induction: not promoted
NSC/EC co-spheroids; in gelatin-based hydrogel, from 6 days after encapsulation
  growth of co-spheroids after introduction of FGF2: lightly enhanced
